Source: patent US7300946B2, “N-(substituted arylmethyl)-4-(disubstituted methyl) piperidines and pyridines” (Bayer CropScience AG, priority 2002, dated 2007)

Test system: tobacco budworm (Heliothis virescens [Fabricius])
Test: surface-treated diet test against the tobacco budworm
Type: in vivo
Conditions: tobacco budworm second instar larvae, 0.25 millimoles of candidate insecticide on the surface of the diet, five-day exposure; for Percent Mortality: compared to total number of insects infested; for Percent Growth Inhibition: inhibition of insect weight relative to untreated controls
In short: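 Wheat germ artificial diet surface-treated with 40 µL of 50 mM DMSO stock diluted 1:7 in 1:1 water/acetone (0.25 millimolar on diet), or sub-multiples for rate tests. One second-instar larva per well, 25° C, 60% RH, 5 days; percent weight inhibition vs DMSO controls and percent mortality.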

Row | SMILES | Percent Mortality (surface-treated diet) [%] | Percent Growth Inhibition (surface-treated diet) [%] | Percent Mortality [%] | Percent Growth Inhibition [%]
1 | CCn1nnc(-c2ccc(CN3CCC(=C(c4ccc(F)cc4)c4ccc(F)cc4)CC3)cc2)n1 [Compound 78] | 67 | 100 | – | –
2 | [O-][N+]1(Cc2ccc(Oc3ncccn3)cc2)CCC(=C(c2ccc(C(F)(F)F)cc2)c2ccccc2Cl)CC1 (stereo not drawn) [Compound 857] | – | – | 83 | 100
3 | CNC(=O)Oc1ccc(CN2CCC(=C(c3ccc(OC(F)(F)F)cc3)c3ccc(OC(F)(F)F)cc3)CC2)cc1 [Compound 791] | – | – | 100 | 100
4 | COc1ccc(C(=C2CC[N+]([O-])(Cc3ccc(NC(=O)OC(C)C)cc3)CC2)c2ccc(OC)cc2)cc1 (stereo not drawn) [Compound 835] | – | – | 0 | 80
5 | Cn1nnc(-c2ccc(CN3CCC(C(NC(=O)Nc4cccc(Cl)c4)c4ccc(OC(F)(F)F)cc4)CC3)cc2)n1 (stereo not drawn) [Compound 335] | 100 | 100 | – | –
6 | CCn1nnc(-c2ccc(CN3CCC(C(OC(=O)Nc4cc(Cl)cc(Cl)c4)c4ccc(C(F)(F)F)cc4)CC3)cc2)n1 (stereo not drawn) [Compound 284] | 100 | 100 | – | –
7 | O=C(Nc1ccc(C(F)(F)F)cc1)OC(c1cccc(C(F)(F)F)c1)C1CCN(Cc2ccc(Oc3ccccn3)cc2)CC1 (stereo not drawn) [Compound 656] | 100 | 100 | – | –
8 | Cn1nnc(-c2ccc(COC(c3ccc(OC(F)(F)F)cc3)C3CCN(Cc4ccc(-c5nnn(C)n5)cc4)CC3)cc2)n1 (stereo not drawn) [Compound 306] | 33 | 59 | – | –
9 | CCn1nnc(-c2ccc(C[N+]3([O-])CCC(C(OC(=O)Nc4ccc(F)cc4)c4ccc(OC(F)(F)F)cc4)CC3)cc2)n1 (stereo not drawn) [Compound 401] | 100 | 100 | – | –
10 | FC(F)(F)c1ccc(C(=C2CCN(Cc3ccc(Oc4ncccn4)cc3)CC2)c2cccc(C(F)(F)F)c2)cc1 [Compound 822] | – | – | 100 | 100
11 | O=C(Nc1ccc(F)c(F)c1)OC(c1ccc(C(F)(F)F)cc1)C1CC[N+]([O-])(Cc2ccc(Oc3ccccn3)cc2)CC1 (stereo not drawn) [Compound 754] | – | – | 100 | 100
12 | O=C(Nc1cc(F)cc(F)c1)OC(c1ccc(C(F)(F)F)cc1)C1CCN(Cc2ccc(Oc3ccccc3F)cc2)CC1 (stereo not drawn) [Compound 547] | 100 | 100 | – | –
13 | CCn1nnc(-c2ccc(CN3CCC(C(OC(=O)Nc4ccc(Cl)cc4)c4cccc(F)c4)CC3)cc2)n1 (stereo not drawn) [Compound 582] | 100 | 100 | – | –
14 | O=C(Nc1cc(F)cc(F)c1)OC(c1ccc(C(F)(F)F)cc1)C1CCN(Cc2ccc(-c3ccccn3)cc2)CC1 (stereo not drawn) [Compound 628] | 100 | 100 | – | –
15 | O=C(Nc1ccc(C(F)(F)F)cc1)OC(c1ccc(C(F)(F)F)cc1)C1CC[N+]([O-])(Cc2ccc(Oc3ccccn3)cc2)CC1 (stereo not drawn) [Compound 398] | 100 | 100 | – | –
16 | Clc1ccc(C(=C2CCN(Cc3ccc(Oc4ncccn4)cc3)CC2)c2ccc(Cl)cc2)cc1 [Compound 812] | – | – | 100 | 100
17 | O=C(Nc1ccc(F)c(F)c1)OC(c1ccc(C(F)(F)F)cc1)C1CC[N+]([O-])(Cc2ccc(Oc3ncccn3)cc2)CC1 (stereo not drawn) [Compound 764] | – | – | 100 | 100
18 | Cn1nnc(-c2ccc(C[N+]3([O-])CCC(=C(c4ccc(C(F)(F)F)cc4)c4ccc(C(F)(F)F)cc4)CC3)cc2)n1 (stereo not drawn) [Compound 112] | 100 | 100 | – | –

Row | SMILES | Percent Mortality (surface-treated diet) [%] | Percent Growth Inhibition (surface-treated diet) [%] | Percent Mortality [%] | Percent Growth Inhibition [%]
19 | FC(F)(F)c1ccc(C(=C2CCN(Cc3ccc(Oc4ncccn4)cc3)CC2)c2cc(Cl)cc(Cl)c2)cc1 [Compound 819] | – | – | 50 | 100
20 | CCn1nnc(-c2ccc(CN3CCC(C(OC(=O)Nc4ccc(Cl)c(Cl)c4)c4ccc(C)cc4)CC3)cc2)n1 (stereo not drawn) [Compound 596] | 100 | 100 | – | –
21 | CCCOc1ccc(CN2CCC(C(OC(=O)Nc3cc(F)cc(F)c3)c3ccc(Cl)c(Cl)c3)CC2)cc1 (stereo not drawn) [Compound 482] | 100 | 100 | – | –
22 | CCn1nnc(-c2ccc(CN3CCC(C(OC(=O)Nc4ccccc4)c4ccc(OC(F)(F)F)cc4)CC3)cc2)n1 (stereo not drawn) [Compound 261] | 100 | 100 | – | –
23 | Cc1cc(C)cc(NC(=O)OC(c2ccc(Cl)cc2)C2CCN(Cc3ccc(Oc4ccccn4)cc3)CC2)c1 (stereo not drawn) [Compound 632] | 100 | 100 | – | –
24 | O=C(Nc1cc(F)cc(F)c1)OC(c1ccc(C(F)(F)F)cc1)C1CC[N+]([O-])(Cc2ccc(Oc3ncc(Cl)cc3Cl)cc2)CC1 (stereo not drawn) [Compound 758] | – | – | 100 | 100
25 | Clc1ccc(C(=C2CCN(Cc3ccc(Oc4ccccn4)cc3)CC2)c2ccc(Cl)cc2)cc1 [Compound 809] | – | – | 100 | 100
26 | CC(C)OC(=O)OC(c1ccc(C(F)(F)F)cc1)C1CCN(Cc2ccc(Oc3ccccn3)cc2)CC1 (stereo not drawn) [Compound 770] | – | – | 0 | 76
27 | O=C(Nc1cc(F)cc(F)c1)OC(c1ccc(C(F)(F)F)cc1)C1CCN(Cc2ccc(Oc3ccc(C(F)(F)F)cn3)cc2)CC1 (stereo not drawn) [Compound 691] | 100 | 100 | – | –
28 | O=C(Nc1cc(F)cc(F)c1)OC(c1ccc(C(F)(F)F)cc1)C1CCN(Cc2ccc(OCc3ccccc3)cc2)CC1 (stereo not drawn) [Compound 549] | 0 | 98 | – | –
29 | Cn1nnc(-c2ccc(CN3CCC(C(NC(=O)c4ccc([N+](=O)[O-])cc4)c4ccc(OC(F)(F)F)cc4)CC3)cc2)n1 (stereo not drawn) [Compound 333] | 17 | 99 | – | –
30 | CCOC(=O)Nc1ccc(CN2CCC(=C(c3ccc(C(F)(F)F)cc3)c3ccc(C(F)(F)F)cc3)CC2)cc1 [Compound 55, N-{4-[(4-{bis[4-(trifluoromethyl)phenyl]methylene}piperidyl)methyl]phenyl}ethoxycarboxamide] | 100 | 100 | – | –
31 | FC(F)(F)c1ccc(C(=C2CCN(Cc3ccc(Oc4ncccn4)cc3)CC2)c2ccccc2Cl)cc1 [Compound 814] | – | – | 100 | 100
32 | O=C(Nc1cc(F)cc(F)c1)OC(c1ccc(C(F)(F)F)cc1)C1CCN(Cc2ccc(Oc3ncccn3)cc2)CC1 (stereo not drawn) [Compound 731] | – | – | 100 | 100
33 | O=C(Nc1cc(F)cc(F)c1)OC(c1ccc(OC(F)(F)F)cc1)C1CCN(Cc2ccc(F)cc2)CC1 (stereo not drawn) [Compound 461] | 0 | 98 | – | –
34 | [O-][N+]1(Cc2ccc(Oc3ncccn3)cc2)CCC(=C(c2ccc(C(F)(F)F)cc2)c2ccc(C(F)(F)F)cc2)CC1 (stereo not drawn) [Compound 854] | – | – | 100 | 100
35 | N#Cc1ccc(Oc2ccc(CN3CCC(C(OC(=O)Nc4ccc(Cl)cc4)c4ccc(OC(F)(F)F)cc4)CC3)cc2)nc1 (stereo not drawn) [Compound 708] | – | – | 100 | 100
36 | FC(F)(F)c1ccc(C(=C2CCN(Cc3ccc(Oc4ccccc4)nc3)CC2)c2ccc(C(F)(F)F)cc2)cc1 [Compound 858] | – | – | 17 | 99
